The assay has as its target neuraminidase. Briefly: Enzyme Inhibition (in vitro neuraminidase screen). It counts as biochemical. From the text: Compositions of the invention are screened for inhibitory activity against neuraminidase by any of the conventional techniques for evaluating enzyme activity. Within the context of the invention, typically compositions are first screened for inhibition of neuraminidase in vitro and compositions showing inhibitory activity are then screened for activity in vivo. Compositions having in vitro Ki (inhibitory constants) of less then about 5×10^-6 M, typically less than about 1×10^-7 M and preferably less than about 5×10^-8 M are preferred for in vivo use.
Useful in vitro screens have been described in detail and will not be elaborated here. However, Itzstein, M. von et al.; "Nature", 363(6428):418-423 (1993), in particular page 420, column 2, full paragraph 3, to page 421, column 2, first partial paragraph, describes a suitable in vitro assay of Potier, M.; et al.; "Analyt. Biochem.", 94:287-296 (1979), as modified by Chong, A. K. J.; et al.; "Biochem. Biophys. Acta", 1077:65-71 (1991); and Colman, P. M.; et al.; International Publication No. WO 92/06691 (Int. App. No. PCT/AU90/00501, publication date Apr. 30, 1992) page 34, line 13, to page 35, line 16, describes another useful in vitro screen.
Enzyme Inhibition: Using the methods of screening in vitro activity described above, the following activities were observed (+10-100 μm, ++1-10 μm, +++<1.0 μm): […]
For `CC(=O)N[C@@H]1[C@@H](N)CC(C(=O)O)=C[C@H]1OCC(O)CO` (stereo partly drawn) [Compound 8], the concentration for half-maximal inhibition (IC50) is 1000 to 10000 nM.

Take `CC(=O)N[C@H]1[C@H](O)C=C(C(=O)O)C[C@@H]1NC(=N)N` [Compound 94]: the IC50 was less than 1000 nM.

Compound `COCO[C@@H]1C=C(C(=O)O)C[C@H](N)[C@H]1NC(C)=O` [Compound 114] yielded an IC50 of 1000 to 10000 nM.

In general, IC50 refers to the midpoint of a concentration-inhibition curve. Higher therefore signals weaker potency in that assay.

For the origin of these results see US5763483A, “Carbocyclic compounds” (priority 1996, dated 1998).
